# Experiments:
# Type in all cases: cell-based, human
# T24 cells = assay: Apoptosis/necrosis analysis (annexin V/PI), T24; details: 18.50 μM, 48 h
# Protocol: Cells in the exponential growth phase were seeded in 12-well plates at a density of 1 × 10^5 cells per well in 3 mL of complete culture medium. Along with the experimental groups, four control groups were included: one without labeling, one labeled only with propidium iodide (PI), one labeled only with Annexin V, and one labeled with both PI and Annexin V. After 24 h, the cells were treated with the compound at concentrations of 2.15, 4.62, 9.25, and 18.50 μM for 48 h. Following the treatment period, the supernatant from each well was transferred to cytometry tubes and centrifuged at 1100 rpm for 10 min. The remaining adhered cells were washed with 1 mL of Hanks’ solution, and 500 μL of trypsin was added to detach the cells. The trypsin action was neutralized by adding 500 μL of complete medium, and the contents (detached cells plus precentrifuged supernatant) were collected into cytometry tubes, which were then centrifuged again at 1100 rpm for 10 min. After centrifugation, the supernatant was discarded. For labeling, Annexin V binding buffer was prepared by diluting 1 mL of component C in 5 mL of distilled water. Next, a 100 μg/mL propidium iodide working solution was prepared by diluting 5 μL of the 1 mg/mL stock (component B) in 45 μL of 1× buffer. […]
# HepG2 cells [1] = assay: Cell cycle progression (propidium iodide flow cytometry), HepG2
# Protocol: Cells were seeded in 12-well plates at a density of 1.0 × 10^5 cells per well and incubated for 24 h to allow adhesion. Following this initial incubation, the cells were treated with the chalcone at concentrations of 0.92, 2.15, 4.62, and 9.25 μM for an additional 48 h. After the treatment, the cells were washed, trypsinized, and collected along with the culture supernatant into Falcon tubes. The samples were then centrifuged at 1000 rpm for 10 min. After centrifugation, the supernatant was discarded, and the cell pellets were resuspended in 200 μL of propidium iodide staining solution before being transferred to cytometry tubes. These tubes were incubated on ice, in the dark, for 30 min. Flow cytometric analysis was performed on 20,000 events using a BD FACScalibur flow cytometer (BD Biosciences, Franklin Lakes, NJ, USA), and the data were analyzed using FlowJo software.
# HepG2 cells [2] = assay: Clonogenic survival, HepG2; details: 4.62 and 9.25 μM, 48 h treatment, 10 days colony formation
# Protocol: The cells were cultured in DMEM (Sigma-Aldrich, St. Louis, USA) and supplemented with 10% fetal bovine serum (Cultilab Ltda., Campinas, Brazil) and antibiotics (amphotericin). They were incubated at 37 °C in a humidified atmosphere with 5% CO2. Control cell groups, which were not exposed to the compound, were included in the experiments and were conducted in triplicate. The chalcone was dissolved in dimethyl sulfoxide (DMSO) for the assays.
# The cells were trypsinized and plated into 24-well plates at a density of 1.0 × 10^5 cells/mL. Afterward, they were treated with the chalcone at concentrations of 2.15, 4.62, 9.25, and 18.50 μM for 48 h. Following treatment, the cells were washed with Hanks’ solution and trypsinized again, and approximately 1000 cells were reseeded into 12-well plates. These cells were incubated for 10 days in a CO2 incubator to allow colony formation. After the incubation period, the culture medium was removed, and the cells were washed with Hanks’ solution. Fixation was performed using 4% formaldehyde for 20 min, followed by […] in 100% methanol for 20 min. The cells were then stained with a 0.5% crystal violet solution prepared in 25% methanol. […] Absorbance was measured at 570 nm using a spectrophotometer, and the results were expressed as the percentage of colonies formed relative to the untreated control group.
# [3] = all concentrations tested (0.92–4.62 μM)
smiles,measurement,setting,value
"CCCc1cc(/C=C/C(=O)c2ccc(C)cc2)c(OC)c(OC)c1 [compound 3, (E)-3-(2,3-Dimethoxy-5-propylphenyl)-1-(p-tolyl)-prop-2-en-1-one]","cell viability (annexin V/PI), T24",T24 cells,reduced cell viability
same,"proportion of cells undergoing early apoptosis, T24",T24 cells,increased the proportion of cells undergoing early apoptosis
same,"fraction of cells in sub-G1, HepG2",HepG2 cells [1]; 0.92–4.62 μM,remained stable
same,"G2/M phase, HepG2",HepG2 cells [1]; [3],corresponding reduction
same,"population of cells in the G0/G1 phase, HepG2",HepG2 cells [1]; [3],significant increase
same,"colony formation, HepG2",HepG2 cells [2],reduction in colony formation

# From paper PMC12713470, “Design and Synthesis of Novel Chalcone Derivatives Targeting Bladder and Liver Cancer: Cytotoxicity Evaluation and Preliminary Mechanistic Studies” (ACS Omega, 2025)
